Measurements published in PMC7915902, “Preclinical Evaluation of [^18F]FACH in Healthy Mice and Piglets: An ^18F-Labeled Ligand for Imaging of Monocarboxylate Transporters with PET” (International Journal of Molecular Sciences, 2021).

Columns and labels:
MCTs [1] = test: PET displacement study in mice; assay type: in vivo, mouse; settings: mice
Method: The biodistribution of [^18F]FACH in mice was assessed by small animal PET (Nanoscan, Mediso, Budapest, Hungary) with dynamic 60 min emission recordings, followed by T1 weighted GRE MR (TR = 15.0 ms, TE = 2.4 ms, FA = 25°) imaging for anatomical correlations and attenuation correction. The mice (n = 20) weighing 32.2 ± 2.9 g were anaesthetised with 2% isoflurane in 60% oxygen, and placed on a thermostatically heated animal bed. The animals then received i.v. injections of 0.9% saline (control), reference compound (10 mg/kg), or α-CCA-Na (25 mg/kg) ten min prior or 20 min after (displacement studies) [^18F]FACH administration (2.3–8.6 MBq, 0.5–11.2 nmol/kg). List mode PET data were binned as a series of attenuation-corrected sinogram frames (12 × 10 s, 6 × 30 s, 5 × 60 s and 10 × 300 s) and were reconstructed by Ordered Subset Expectation Maximization (OSEM3D) with four iterations, six subsets and a voxel size of 0.4 mm³ (Nucline v2.01, Mediso).
The analysis of reconstructed datasets was performed with PMOD software (v4.103, PMOD Technologies LLC, Zurich, Switzerland).

MCT4 = test system: MCT4; set-up: method as in PMID 31017677; settings: L-[14C]lactate uptake, MDA-MB231 cells; read-out: IC50 towards MCT4; cited from earlier work
plasma protein = test: Plasma protein binding in vitro (ultrafiltration); assay type: in vitro ADME, piglet; settings: pig plasma, 20 min at 37 °C
Method: To measure plasma protein binding in vitro, a 1 mL portion of piglet plasma was incubated with 4.9 MBq [^18F]FACH (10 µL) on a shaker (400 rpm) for 20 min at 37 °C. The plasma protein binding was also measured ex vivo in 10 µL portions of mouse plasma from retro-orbital blood samples collected 70 min after intravenous (i.v.) injection of 3.7 MBq [^18F]FACH via a tail vein. The free and bound fractions of [^18F]FACH were separated by centrifugation at room temperature (2000 g for ten minutes, Centrifree® YM-30, Ultrafiltration Device; Merck KGaA, Darmstadt, Germany). Radioactivity was measured in aliquots of ultrafiltrate and in prefiltration plasma samples, using a Wizard 2470 γ-counter (PerkinElmer LAS, Rodgau, Germany), and the free fraction in the plasma (fp) calculated from the concentration ratio.

MCTs [2] = test: Compartmental kinetic modelling of PET data in mice; assay type: in vivo, mouse; settings: for K1 / VT / k2: 1-TCM; for K1 (representative 1-TCM curve fit) / k2 (representative 1-TCM curve fit): control study, Figure S12
Method: (§1) Table 4 includes the results of 1-tissue-compartment kinetic modelling (1-TCM) of [^18F]FACH in the kidney cortex and the liver of the control and pre-treated mouse groups (α-CCA-Na and reference compound). […] The BPND was estimated as the ratio of [VT(control)/VT(pre-treatment)] − 1.
(§2) Kinetic analysis of reconstructed datasets was performed with PMOD software. First, image derived arterial input functions (IDIFs) were obtained from the left ventricle in mice and from an artery close to the kidney in piglet studies. IDIFs were corrected for partial volume effects, plasma fraction from hematocrit values (individually determined for each piglet directly before PET imaging; for mice set to 0.51 according to CD-1 Mouse Hematology sheet from Charles River Laboratories, 2011) and radio-metabolites (measured for piglets, and set to zero for mice). Tri-exponential metabolite-corrected fitted input functions were used for one and two tissue compartment modelling (1-TCM/2-TCM) of time activity curves (TACs) in tissue volumes of interest (VOIs). For both species the specific blood volume was set to 0.15 mL g^−1 in the kidney cortex and 0.128 mL g^−1 in the liver, according to published values.

MCTs [3] = test: Autoradiographic saturation binding (homologous displacement) in mouse kidney cryosections
Method: Cryosections from the mouse kidney (10 µm) were cut on a microtome (Microm HM560, Thermo Scientific Microm, Fisher Scientific GmbH, Schwerte, Germany), mounted on glass slides (SuperFrost, Thermo Scientific Menzel, Fisher Scientific GmbH), dried for two hours at room temperature, and stored at −25 °C. Before the binding experiment, the tissue slices were dried under a stream of cold air, pre-incubated with PBS (pH 7.4) for 15 min at room temperature and dried again before incubation with PBS containing [^18F]FACH (1.2 nM) without (total binding) and with different concentrations of FACH-Na (10 µM–0.1 nM; homologous competition) for 60 min. Specific binding to MCTs of [^18F]FACH in cryosections of mouse kidney was determined after co-incubation of 1 nM [^18F]FACH with vehicle or 300 nM α-CCa-Na or 300 nM reference compound (homologous competition).
The incubation was terminated by washing with ice-cold buffer (50 mM TRIS-HCl, pH 7.4) twice for two minutes followed by dipping in ice-cold demineralized water for 5 s and drying under a stream of cold air. The dried sections along with activity standards (1 µL aliquots of different dilutions of the incubation solution dried on microscopic slides) were exposed to phosphor imaging plates (FujiFilm Co., Tokyo, Japan) transferred after 120 min to a phosphor imager (HD-CR 35 Bio; Dürr NDT GmbH & Co. KG, Bietigheim-Bissingen, Germany). Regions of interest (ROIs) were drawn manually or automatically on the tissue slices or standard spots, and the pixelwise results converted to Bq/mg wet weight. Non-linear regression analysis was performed with GraphPad Prism (v.3.0 GraphPad Software, San Diego, CA, USA). KD and Bmax values were calculated by the simplified Cheng and Prusoff equation (http://www3.uah.es/farmamol/Public/GraphPad/radiolig.htm, accessed on 5 February 2021):(1) KD=Ki=IC50−Radioligand (M) (2) Bmax=Top−Bottom/Radioligand (M)/(KD+Radioligand (M))

MCTs [4] = test: Compartmental kinetic modelling of PET data in piglets; assay type: in vivo, piglet; settings: piglets; for K1 / VT / k2: 1-TCM, control; for BPND: (VT(control)/VT(pre-treated)) − 1; for K1 (representative 1-TCM curve fit) / k2 (representative 1-TCM curve fit): control study, Figure S12
Method: as §1, §2

For CCCN(CCC[18F])c1ccc(/C=C(\C#N)C(=O)O)c(OC)c1 [[^18F]FACH, (E)-2-cyano-3-{4-[(3-[^18F]fluoropropyl)(propyl)amino]-2-methoxyphenyl}acrylic acid], the “kidney cortex SUV” value (MCTs [1]; before injection of α-CCA-Na) is given as 3.50 ± 0.42, the “blood SUV” value (MCTs [1]; pre-injection of α-CCA-Na) is given as 0.74 ± 0.23 and the IC50 (MCT4) is given as 6.5 nM. For the same molecule, the “free plasma fraction (fp)” value (plasma protein) was 0.03, the K1 (MCTs [2]; kidney cortex, control) was 0.13 ± 0.06 mL/g/min and the VT (MCTs [2]; kidney cortex, control) was 8.60 ± 4.55 mL/g. For the same molecule, the k2 (MCTs [2]; kidney cortex, control) was 0.02 ± 0.01 min⁻¹, the “K1 (2-TCM)” value (MCTs [2]; kidney cortex, 2-TCM, control) was 0.28±0.24 ml/ccm/min and the “VND (2-TCM)” value (MCTs [2]; kidney cortex, 2-TCM, control) was 1.77±2.49 ml/ccm. The “k2 (2-TCM)” value (MCTs [2]; kidney cortex, 2-TCM, control) was 1.54 ± 2.43 min⁻¹, the “k3 (2-TCM)” value (MCTs [2]; kidney cortex, 2-TCM, control) was 0.77 ± 0.78 min⁻¹ and the “k4 (2-TCM)” value (MCTs [2]; kidney cortex, 2-TCM, control) was 0.02 ± 0.02 min⁻¹. For the same molecule, the “K1 (representative 1-TCM curve fit)” value (MCTs [2]; kidney cortex) was 0.16 mL/g/min, the “k2 (representative 1-TCM curve fit)” value (MCTs [2]; kidney cortex) was 0.04 min⁻¹ and the K1 (MCTs [2]; liver, control) was 0.49 ± 0.24 mL/g/min. It also gave a VT (MCTs [2]; liver, control) of 6.47 ± 2.49 mL/g, a k2 (MCTs [2]; liver, control) of 0.08 ± 0.02 min⁻¹ and a BPND (MCTs [2]; liver, (VT(control)/VT(pre-treated)) − 1) of 0.04. For the same molecule, the “K1 (representative 1-TCM curve fit)” value (MCTs [2]; liver) was 0.40 mL/g/min, the “k2 (representative 1-TCM curve fit)” value (MCTs [2]; liver) was 0.09 min⁻¹ and the Kd (MCTs [3]; mouse kidney cortex (Co) cryosections) was 118 ± 12 nM. It also gave a Kd (MCTs [3]; mouse kidney inner medulla (IM) cryosections) of 265 nM, a Kd (MCTs [3]; mouse kidney outer medulla (OM) cryosections) of 212 nM and a K1 (MCTs [4]; kidney cortex) of 0.69 ± 0.11 mL/g/min. It also gave a VT (MCTs [4]; kidney cortex) of 11.29 ± 1.47 mL/g, a k2 (MCTs [4]; kidney cortex) of 0.06 ± 0.01 min⁻¹ and a BPND (MCTs [4]; kidney cortex) of 5.2. The “K1 (representative 1-TCM curve fit)” value (MCTs [4]; kidney cortex) was 0.82 mL/g/min, the “k2 (representative 1-TCM curve fit)” value (MCTs [4]; kidney cortex) was 0.08 min⁻¹ and the K1 (MCTs [4]; liver) was 0.64 ± 0.10 mL/g/min. For the same molecule, the VT (MCTs [4]; liver) was 5.12 ± 1.27 mL/g, the k2 (MCTs [4]; liver) was 0.13 ± 0.05 min⁻¹ and the BPND (MCTs [4]; liver) was 0.18. The “K1 (representative 1-TCM curve fit)” value (MCTs [4]; liver) was 0.67 mL/g/min and the “k2 (representative 1-TCM curve fit)” value (MCTs [4]; liver) was 0.14 min⁻¹.
